Measurements: patent publication US10000771B2, “Nuclear targeting sequences” (Yeda Research and Development Co. Ltd., priority 2007, dated 2018)
Ends that are not written are not given here.

How the values were obtained:
[1] = system: COS7 cells; experiment: Subcellular fractionation of 2GFP chimeras; assay type: cell-based
Experimental: FIG. 9A is an autoradiograph illustrating the subcellular fractionation of transfected SPS, APA, and EPE peptides fused to a 2GFP in COS7 cells. Western blot analysis of aliquots of the fractions were stained with anti GFP Ab to detect the different chimaras, and with anti tubulin and anti c-Jun Abs as markers for the cytoplasmic and nuclear fractions respectively.
Cellular Fractionation: Transfected COS7 cells were starved (0.1% FBS) for 16 h, after which they were washed with ice-cold PBS, suspended in ice-cold buffer H, and centrifuged (12,000×g, 5 min). Then, the nuclear and cytosolic fractions were isolated as described [H. Rubinfeld, T. Hanoch, R. Seger, J. Biol. Chem. 274, 30349 (1999)]. Briefly, the pellets were suspended in 0.1% NP-40 followed by centrifugation (12,000×g, 5 min). The supernatant, containing the cytosolic fraction, was boiled in sample buffer. The pellet was suspended in extraction buffer (420 mM Nacl, 50 mM β-glycerophosphate, 0.5 mM Na3VO4, 1.5 mM MgCl2, 0.2 mM EDTA, 1 mM DTT, 25% glycerol), incubate on ice for 10 min, sonicated (50 W, 2×7 sec), and centrifuged (12,000×g, 5 min). The supernatant, containing the nuclear fraction, was subjected to Western blot.

[2] = system: CHO cells; experiment: Fluorescence microscopy of 2GFP chimeras (subcellular localization); assay type: cell-based; conditions: 24 hr post transfection, serum-starved
Experimental: FIGS. 8A-8H are photomicrographs illustrating that SPS, APA, and EPE peptides fused to a 2GFP chimera modify its subcellular localization. CHO cells were grown on cover slips and transfected with 19 amino acid from the kinase insert domain of ERK2 including the SPS region (GFP-SPS) fused to a 2GFP chimera and with the same chimeras with substitution of the Ser to Ala (GFP-APA) or substitution to Glu (GFP-EPE). Twenty-four hr later, the cells were serum-starved for 16 hr, fixed, stained with DAPI and visualized by a fluorescence microscope.
(§1) Immunofluorescence Microscopy. Cells were fixed (30 min in 3% paraformaldehyde in PBS or 10 min with ice-cold methanol), followed by 5-min permeabilization with 0.2% Triton X-100 in PBS (23° C.). The fixed cells were sequentially incubated with the appropriate Abs (45 min) followed by rhodamine-conjugated secondary Abs (45 min) and DAPI. Slides were visualized using a fluorescence microscope (Nikon, Japan) at 400× magnifications.
To validate the general importance of the SPS domain, a 19 amino acid sequence surroundings the SPS or the APA and EPE mutants was fused to a dimer of GFP proteins (2GFP). Cellular distribution of the chimeras was detected in CHO cells 24 hr post transfection of the GFP constructs.

[3] = system: endogenous ERKs; experiment: Effect of 2GFP chimeras on nuclear translocation of endogenous ERKs; assay type: cell-based; conditions: CHO cells overexpressing the chimera, TPA 250 nM, 15 min
Experimental: FIGS. 10A-10X illustrate the effects of the 2GFP chimeras on the nuclear translocation of endogenous ERKs. CHO cells overexpressing 2GFP, 2GFP-SPS, 2GFP-APA and 2GFP-EPE were serum starved and treated with or without TPA (250 nM, 15 min). Subsequently, the cells were fixed and stain with anti-ERK2 (C-14) Ab and with DAPI.
as §1

[4] = target: T1, importin-7 (Homo sapiens, UniProt O95373); experiment: Coimmunoprecipitation with importin-7; assay type: binding; conditions: HeLa cells, coimmunoprecipitation, without EGF stimulation
T1 construct: endogenous in cells; host or cells: HeLa
T1 sequence (O95373 whole entry): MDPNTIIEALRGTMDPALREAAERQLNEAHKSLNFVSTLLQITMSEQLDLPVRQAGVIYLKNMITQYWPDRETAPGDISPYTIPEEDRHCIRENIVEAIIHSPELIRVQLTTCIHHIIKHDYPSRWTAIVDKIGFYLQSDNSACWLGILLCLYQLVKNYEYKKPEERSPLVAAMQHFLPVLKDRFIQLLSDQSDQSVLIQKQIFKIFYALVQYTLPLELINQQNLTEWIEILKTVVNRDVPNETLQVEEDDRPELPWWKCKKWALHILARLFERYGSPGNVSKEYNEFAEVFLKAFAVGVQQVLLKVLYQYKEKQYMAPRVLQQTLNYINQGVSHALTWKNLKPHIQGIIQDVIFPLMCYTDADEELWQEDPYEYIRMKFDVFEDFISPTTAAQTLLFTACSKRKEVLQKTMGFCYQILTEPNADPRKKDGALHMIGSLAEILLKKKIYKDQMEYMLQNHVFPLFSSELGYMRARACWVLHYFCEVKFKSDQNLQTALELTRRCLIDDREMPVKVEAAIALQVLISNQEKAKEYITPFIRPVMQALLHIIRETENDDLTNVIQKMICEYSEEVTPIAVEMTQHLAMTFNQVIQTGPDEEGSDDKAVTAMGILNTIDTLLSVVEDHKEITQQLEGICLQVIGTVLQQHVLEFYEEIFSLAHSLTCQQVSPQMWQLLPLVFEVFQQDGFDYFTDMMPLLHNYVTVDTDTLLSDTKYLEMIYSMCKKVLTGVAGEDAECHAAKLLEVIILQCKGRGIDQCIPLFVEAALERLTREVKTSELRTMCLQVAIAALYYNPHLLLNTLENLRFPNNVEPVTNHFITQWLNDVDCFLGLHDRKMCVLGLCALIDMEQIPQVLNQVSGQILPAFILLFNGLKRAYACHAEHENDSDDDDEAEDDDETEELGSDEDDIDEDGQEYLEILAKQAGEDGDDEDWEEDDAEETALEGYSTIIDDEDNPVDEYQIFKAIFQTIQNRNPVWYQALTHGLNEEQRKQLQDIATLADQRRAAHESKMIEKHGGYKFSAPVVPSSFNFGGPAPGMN
Experimental: FIGS. 19A-19C are autoradiographs illustrating that phospho-SPS interacts with importin-7 and releases Nup153c binding without involvment of importin-β. […]. Interaction of ERK2 with Importin-7 is enhanced by EGF stimulation and EPE mutation. HeLa cells overexpressing WT-ERK (WT), ERK-APA (APA), ERK-EPE (EPE) or GFP were serum starved and treated with EGF (50 ng/ml, 10 min). The extracts of the treated cells were then subjected to coimmunoprecipitation using A/G beads pre-conjugated with anti GFP Ab and mild washes. The coimmunoprecipitated importin-7 (first panel) and importin-β (third panel), as well as their loading amounts (panels 2 and 4 respectively) were determined by WB using anti importin-7 (αImp7) and importin-β (αImpβ) Abs. The equal amount of immunoprecipitated ERKs was determined with anti GFP (αGFP; IP) Ab. FIG. 19B. Interaction of 2GFP-SPS and its mutants with importin-7. HeLa cells overexpressing 2GFP, 2GFP-SPS, 2GFP-APA and 2GFP-EPE constructs were subjected to coimmunoprecipitation as described in FIG. 19A (without EGF stimulation). FIG. 19C. Interaction of NUP153 with WTERK2 and its APA and EPE mutants. NUP153c is elevated in APA-ERK2, but reduced in EPE-ERK2. Immunoprecipitated and stringently washed WT-ERK2 (WT), APA-ERK2 (APA) or ERK2 from […] cells pre-treated with or without TPA (250 nM, 15 min) were incubated with 0.5 μg recombinant His-Nup153c. This was followed by mild washing, and the beads were then subjected to Western blot analysis using anti His (αHis) and anti αGFP Abs.
Immunoprecipitation. Cellular extracts of stimulated transfected cells, were incubated with anti-GFP antibody preconugated to A/G beads (Santa Cruz; (2 hr, 4° C.). Subsequently, the beads were washed twice with HNTG buffer and once with 0.5 M LiCl. The immunoprecipitates were subjected either to Western blotting as described above or to an in vitro phosphatase assay as described under Results.

[5] = system: SPS domain; experiment: SPS phosphorylation detected by anti pSPS Ab Western blot; assay type: cell-based; conditions: cells pretreated (15 min) prior to EGF 50 ng/ml stimulation
Experimental: FIGS. 4A-4I are autoradiographs characterizing SPS phosphorylation using an Ab to the phosphorylated SPS domain. FIG. 4A illustrates an elevation of pSPS detection upon stimulation. COS cells were transfected with WT-GFP-ERK2. Twenty-four hr after transfection, the cells were serum-starved for 16 hr and subsequently treated with the general stimulator VOOH (V, 100 μM Na3VO4 and 200 μM H2O2, 15 min), TPA (T, 250 nM, 15 min), EGF (E, 50 ng/ml for 15 min), or left untreated (NT). The GFP-ERK2 was immunoprecipitated with anti GFP Ab, extensively washed, and the IP was then subjected to Western blotting with anti phospho SPS-ERK (αphoSPS-ERK) and anti general ERK (αgen-ERK) Abs. FIG. 4B is a time course of SPS phosphorylation. COS7 cells overexpressing WT-GFP-ERK2 were serum starved followed by EGF stimulation for the indicated time points. The lysates were then subjected to Western blot analysis as in FIG. 4A. FIGS. 4C-D. GFP-ERK2 was immunoprecipitated from VOOH stimulated (Act) or non-stimulated (NT), transfected COS7 cells as above. The immunoprecipitated protein was then incubated with shrimp's alkaline phosphates (SAP, 15 units, 30 min, 30° C. in the manufacturer digestion buffer), and subjected to Western blot analysis with anti phosphoSPS-ERK (αpSPS; FIG. 4C), anti phosphoTEY-ERK (αpTEY; FIG. 4D), and anti general-ERK Ab (αgen-ERK; FIGS. 4C, D). FIG. 4E. Elevation of anti pSPS Ab immunoreactivity upon stimulation of endogenous ERKs. Following serum starvation COS7 cells were treated with EGF (50 ng/ml) or VOOH (V, 100 μM Na3VO4 and 200 μM H2O2) for the indicated times. SPS phosphorylation was detected using the anti pSPS Abs, and this was compared to the amount of genral ERKs detected by αgERK. FIG. 4F. Specificity of the anti pSPS Ab. COS7 cells overexpressing either GFP-ERK2 or 244-6A mutant were serum starved for 16 hr, and then treated with EGF (50 ng/ml) for 15 min following WB analysis using αpSPS and αgERK Abs. FIG. 4G. TEY phosphorylation is not required for SPS phosphorylation. COS7 cells overexpressing WT-ERK2 or TEY-AAA were treated as described in D. FIG. 4H. COS7 cells were treated with or without UO126 prior (15 min) to EGF (50 ng/ml) stimulation for the indicated times. SPS-phosphorylation was detected using αpSPS and αgERK Abs. FIG. 4I. Phosphorylation of SPS is mediated by ERK autophosphorylation. […] The phosphorylation (^32P-ERK2) of ERK and its mutants was detected by autoradiography. […]
FIG. 9B is an autoradiograph illustrating that stimulation elevates pSPS phosphorylation of 2GFP-SPS construct. […] The total amount of immunoprecipitated 2GFP-SPS was detected with αGFP Ab. […]

[6] = system: CHO cells; experiment: Microscopy of MEK1-GFP constructs (subcellular localization); assay type: cell-based
Experimental: FIGS. 14A-14R are photomicrographs illustrating that the NTS motif regulates MEK1 shuttling into the nucleus. CHO cells overexpressing WT-GFP-MEK1 (WT), AAA-GFP-MEK1 (AAA-MEK) and EPE-GFP-MEK1 (EPE-MEK) were starved for 16 hr and treated with LMB (5 ng/ml, 1 hr; LMB), LMB (5 ng/ml, 1 hr)+TPA (250 nM, 15 min; LMB+TPA) or left un treated (NT). Subsequently the cells were fixed, stained with DAPI and visualized by a fluorescent microscope.
as §1
Other proteins that translocate into the nucleus upon stimulation are the MEKs [H. Jaaro, H. Rubinfeld, T. Hanoch, R. Seger, Proc. Natl. Acad. Sci. USA 94, 3742 (1997)]. […] This TPT sequence was also shown to be phosphorylated upon cellular stimulation [S. Matsuda, Y. Gotoh, E. Nishida, J Biol Chem 268, 3277 (Feb. 15, 1993)], and to be involved in protein-protein interaction that can determine subcellular localization [A. Nantel, K. Mohammad-Ali, J. Sherk, B. I. Posner, D. Y. Thomas, J Biol Chem 273, 10475 (Apr. 24, 1998). […]

Molecule	localized in the nucleus [1]	cellular distribution [2]	inhibition of TPA-induced translocation of endogenous ERKs [3]	interaction of 2GFP constructs with importin-7 [4]	anti pSPS Ab reaction with GFP-ERK2 after inhibitor pretreatment [5]	nuclear accumulation after TPA stimulation ([6]; LMB 5 ng/ml + TPA 250 nM, 15 min)	nuclear translocation after leptomycin B ([6]; LMB 5 ng/ml, 1 hr)
2GFP-APA: 2GFP-WT with the Ser residues in the SPS domain mutated to Ala (LDQLNHILGILGAPAQEDL; also: fused to 2GFP (large carrier))	3%	mainly in the cytoplasm and perinuclear region	more so	reduced this interaction	–	–	–
2GFP-EPE: 2GFP-WT with the Ser residues in the SPS domain mutated to Glu (LDQLNHILGILGEPEQEDL; also: fused to 2GFP (large carrier))	90%	mainly in the nucleus	–	elevated it	–	–	–
N#CC(=C(/N)Sc1ccccc1N)/C(C#N)=C(\N)Sc1ccccc1N [U0126, reference compound]	–	–	–	–	did not react	–	–
EPE-MEK1: GFP-MEK1 with residues 386 and 388 replaced with Glu	–	–	–	–	–	localized in the nucleus even without stimulation	increased
